≈ marks a conversion by molar mass, not a printed value.
What was measured:
[1] = Tissue levels after a single oral administration in rats (microbiological assay); type: in vivo; details: rat; for concentration at 0.5 h / concentration at 1 h / concentration at 2 h / concentration at 4 h / concentration at 6 h: 50 mg/kg oral
Description: (§1) Tissue levels of the compound (I) after a single oral administration of 50 mg/kg in mice and rats
(§2) Tissue levels of the compound (I) were determined by micro-biological assay which employed the thin layer cup method with Bacillus subtilis ATCC6633 as the test organism. Serum and tissue levels of the compound (I) were calculated with the standard curve prepared in normal serum of the test animal species and M/15 phosphate buffer (pH 7.5), respectively.

[2] = tested on: gram-positive and gram-negative bacteria; assay: In vitro antibacterial activity against gram-positive and gram-negative bacteria (in words); type: cell-based; details: versus nalidixic acid and pipemidic acid
Description: (§3) The minimum inhibitory concentration (MIC) of the compound (I) was determined by an agar dilution technique (the standard method of Japan Society of Chemotherapy) against standard strains of gram-positive and gram-negative bacteria.

[3] = tested on: Staphylococcus aureus Smith; assay: In vivo antibacterial activity, systemic infection in mice; parameters: species or system mice (male, ICR)
Description: (§4) The in vivo antibacterial activity of the compound (I) was determined in systemic infection in mice. The systemic infections were produced in male mice ICR (body weight, 19±2 g) by inoculating intraperitoneally with Staphylococcus aureus Smith and E. coli ML4707. The compounds were administered orally in divided doses at 0 and 4 hrs. after infection. The therapeutic effect of drugs was judged from the number of mice surviving after 7 days of observation. A comparison of in vivo antibacterial activity was made on the basis of the […] effective dose (ED50) calculated by the method of Litchfield and Wilcoxon.

E. coli ML4707 [4] = assay: as above; parameters: species or system mice (male, ICR); details: Escherichia coli, ML4707, 168 h; mice, oral at 0 and 4 hrs. after infection; challenge 1.2 × 10^7 cells/animal in saline; 7 days survival; read-out: ED50
Description: as §4

[5] = tested on: Staphylococcus aureus Smith; assay: MIC against the infecting strain (Table 2); type: cell-based; details: Staphylococcus aureus Smith; read-out: MIC
Description: as §3

E. coli ML4707 [6] = assay: MIC against the infecting strain (Table 2); type: cell-based; details: Escherichia coli; E. coli ML4707; read-out: MIC
Description: as §3

[7] = Tissue levels after a single oral administration in mice (microbiological assay); type: in vivo; details: mouse; for concentration at 0.5 h / concentration at 1 h / concentration at 2 h / concentration at 4 h / concentration at 6 h: 50 mg/kg oral
Description: as §1, §2

Acute toxicity in mice = type: in vivo; details: for LD50 at 168 h: mouse, in vivo, male mice, 7 days observation
Text: Acute toxicity of the compound (I) was examined in mice (ICR strain, 7 weeks old). Observation period was 7 days after a single oral and intravenous administration.

[8] = Metabolism when administered to animals; type: in vivo
Shigella sonnei IID969 = assay: In vitro antibacterial activity (MIC, agar dilution); type: cell-based; details: inoculum 10^8 cells/ml
Description: as §3
(§5) Inoculum size: 10^8 cells/ml

P. morganii IID602 = assay: as above; type: cell-based; details: Morganella morganii, inoculum 10^8 cells/ml
Description: as §3, §5

[9] = tested on: Salmonella enteritidis IID604; assay: as above; type: cell-based; details: Salmonella enterica; Salmonella enteritidis IID604; inoculum 10^8 cells/ml; read-out: MIC
Description: as §3, §5

P. aeruginosa IFO12689 = assay: as above; type: cell-based; details: Pseudomonas aeruginosa; P. aeruginosa IFO12689; inoculum 10^8 cells/ml; read-out: MIC
Description: as §3, §5

S. epidermidis IID866 = assay: as above; type: cell-based; details: Staphylococcus epidermidis, inoculum 10^8 cells/ml
Description: as §3, §5

Proteus vulgaris IFO3167 = assay: as above; type: cell-based; details: Proteus vulgaris IFO3167; inoculum 10^8 cells/ml; read-out: MIC
Description: as §3, §5

[10] = tested on: Serratia marcescens IID618; assay: as above; type: cell-based; details: inoculum 10^8 cells/ml
Description: as §3, §5

[11] = tested on: S. aureus IID670 (Terajima); assay: as above; type: cell-based; details: Staphylococcus aureus; S. aureus IID670 (Terajima); inoculum 10^8 cells/ml; read-out: MIC
Description: as §3, §5

[12] = tested on: Citrobacter freundii IID976; assay: as above; type: cell-based; details: inoculum 10^8 cells/ml
Description: as §3, §5

[13] = tested on: Haemophilus influenzae IID986; assay: as above; type: cell-based; details: Haemophilus influenzae IID986; inoculum 10^8 cells/ml; read-out: MIC
Description: as §3, §5

S. pneumoniae IID552 = assay: as above; type: cell-based; details: Streptococcus pneumoniae; S. pneumoniae IID552; inoculum 10^8 cells/ml; read-out: MIC
Description: as §3, §5

[14] = tested on: Klebsiella pneumoniae IFO3512; assay: as above; type: cell-based; details: Klebsiella pneumoniae IFO3512; inoculum 10^8 cells/ml; read-out: MIC
Description: as §3, §5

[15] = tested on: Bacillus subtilis PCI 219; assay: as above; type: cell-based; details: PCI219; Bacillus subtilis PCI 219; inoculum 10^8 cells/ml; read-out: MIC
Description: as §3, §5

[16] = kidney, read-out: Kidney concentration
[17] = liver, read-out: Liver concentration
[18] = lung, read-out: Lung concentration
[19] = serum, read-out: Serum concentration

CCn1cc(C(=O)O)c(=O)c2cc(F)c(N3CCN(Cc4ccc(N)cc4)CC3)c(F)c21 [compound (I), 7-[4-(p-aminobenzyl)-1-piperazinyl]-1-ethyl-6,8-difluoro-1,4-dihydro-4-oxoquinoline-3-carboxylic acid]
concentration at 0.5 h [1, 16]: 6600 ng/mL | concentration at 1 h [1, 16]: 6800 ng/mL | concentration at 2 h [1, 16]: 2700 ng/mL | concentration at 4 h [1, 16]: 1000 ng/mL | concentration at 6 h [1, 16]: 300 ng/mL | concentration at 0.5 h [1, 17]: 14000 ng/mL | concentration at 1 h [1, 17]: 15400 ng/mL | concentration at 2 h [1, 17]: 6200 ng/mL | concentration at 4 h [1, 17]: 2200 ng/mL | concentration at 6 h [1, 17]: 800 ng/mL | concentration at 0.5 h [1, 18]: 6000 ng/mL | concentration at 1 h [1, 18]: 8600 ng/mL | concentration at 2 h [1, 18]: 2100 ng/mL | concentration at 4 h [1, 18]: 600 ng/mL | concentration at 0.5 h [1, 19]: 4800 ng/mL | concentration at 1 h [1, 19]: 5300 ng/mL | concentration at 2 h [1, 19]: 1200 ng/mL | concentration at 4 h [1, 19]: 200 ng/mL | concentration at 6 h [1, 19]: 200 ng/mL | Cmax ([1]; serum, rats, single oral 50 mg/kg, read-out: Peak serum level): 5300 ng/mL | Antibacterial activity against gram-positive and gram-negative bacteria, in words [2]: more active than nalidixic acid and pipemidic acid | Potency superior to nalidixic acid (in vivo) ([3]; S. aureus Smith, versus nalidixic acid): 172 times | In vivo antibacterial activity, in words ([3]; S. aureus Smith, versus nalidixic acid and pipemidic acid): significantly more effective than that of nalidixic acid and pipemidic acid | Potency superior to pipemidic acid (in vivo) ([3]; S. aureus Smith, versus pipemidic acid): 62 times | ED50 ([3]; Staphylococcus aureus, 168 h, mice, oral at 0 and 4 hrs. after infection, challenge 2.4 × 10^5 cells/animal in BHI containing mucin, 7 days survival, read-out: ED50): 3.7 mg/kg | ED50 (E. coli ML4707 [4]): 13.8 mg/kg | MIC [5]: 0.05 µg/mL (≈ 0.113 µM) | MIC (E. coli ML4707 [6]): 0.39 µg/mL (≈ 0.881 µM) | concentration at 0.5 h [7, 16]: 13000 ng/mL | concentration at 1 h [7, 16]: 13000 ng/mL | concentration at 2 h [7, 16]: 7800 ng/mL | concentration at 4 h [7, 16]: 4600 ng/mL | concentration at 6 h [7, 16]: 4600 ng/mL | concentration at 0.5 h [7, 17]: 22500 ng/mL | concentration at 1 h [7, 17]: 17500 ng/mL | concentration at 2 h [7, 17]: 12000 ng/mL | concentration at 4 h [7, 17]: 9000 ng/mL | concentration at 6 h [7, 17]: 5800 ng/mL | concentration at 0.5 h [7, 18]: 12800 ng/mL | concentration at 1 h [7, 18]: 9500 ng/mL | concentration at 2 h [7, 18]: 5500 ng/mL | concentration at 4 h [7, 18]: 4300 ng/mL | concentration at 6 h [7, 18]: 2800 ng/mL | concentration at 0.5 h [7, 19]: 8600 ng/mL | concentration at 1 h [7, 19]: 6500 ng/mL | concentration at 2 h [7, 19]: 5000 ng/mL | concentration at 4 h [7, 19]: 2700 ng/mL | concentration at 6 h [7, 19]: 1800 ng/mL | Cmax ([7]; serum, mice, single oral 50 mg/kg, read-out: Peak serum level): 8600 ng/mL | Acute toxicity, in words (Acute toxicity in mice; mice, single oral and intravenous administration): low toxicity | LD50 at 168 h (Acute toxicity in mice; iv): 250 to 300 mg/kg | LD50 at 168 h (Acute toxicity in mice; po): > 4000 mg/kg | Metabolism, in words [8]: metabolized in part to 1-ethyl-6,8-difluoro-1,4-dihydro-4-oxo-7-(1-piperazinyl)quinoline-3-carboxylic acid | MIC (Shigella sonnei IID969): 0.39 µg/mL (≈ 0.881 µM) | MIC (P. morganii IID602): 1.56 µg/mL (≈ 3.53 µM) | MIC [9]: 1.56 µg/mL (≈ 3.53 µM) | MIC (P. aeruginosa IFO12689): 25 µg/mL (≈ 56.5 µM) | MIC (S. epidermidis IID866): 0.2 µg/mL (≈ 0.452 µM) | MIC (Proteus vulgaris IFO3167): 1.56 µg/mL (≈ 3.53 µM) | MIC [10]: 3.13 µg/mL (≈ 7.07 µM) | MIC [11]: 0.2 µg/mL (≈ 0.452 µM) | MIC [12]: 1.56 µg/mL (≈ 3.53 µM) | MIC [13]: 0.2 µg/mL (≈ 0.452 µM) | MIC (S. pneumoniae IID552): 0.39 µg/mL (≈ 0.881 µM) | MIC [14]: 0.1 µg/mL (≈ 0.226 µM) | MIC [15]: 0.1 µg/mL (≈ 0.226 µM)

Source: US4429127A, “Quinoline carboxylic acid derivative” (Kyorin Pharmaceutical Co., Ltd., priority 1981, dated 1984)
